The source of these data is patent publication US10287301B2 (Achillion Pharmaceuticals, Inc., priority 2015, dated 2019).

pIC50: −log10 of the molar value. Read-outs that look alike come from different tables or passages of the source.

The target in the test is Human Factor D (Homo sapiens (Human), UniProt P00746). The test is described as follows: Human Factor D Assay. In kind it is biochemical. In short, it runs like this: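 Serum-purified human Factor D (80 nM final) was preincubated with test compound at various concentrations for 5 min at room temperature in 50 mM Tris, 1M NaCl, pH 7.5. Z-L-Lys-SBzl and DTNB were then added at 100 μM each. IC50 came from nonlinear regression of reaction rates versus compound concentration.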
Human Factor D, sequence (P00746 26-253): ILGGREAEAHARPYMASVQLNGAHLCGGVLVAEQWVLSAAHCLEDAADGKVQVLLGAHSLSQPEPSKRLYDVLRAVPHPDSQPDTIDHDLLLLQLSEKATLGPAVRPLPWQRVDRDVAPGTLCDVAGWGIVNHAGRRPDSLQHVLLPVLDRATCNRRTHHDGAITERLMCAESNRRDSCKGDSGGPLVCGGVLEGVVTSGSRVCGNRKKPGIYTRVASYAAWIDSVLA

Where [1] appears, read: Table 3, Human Factor D 80 nM, substrate Z-L-Lys-SBzl, read-out: IC50 (Stars).
[2] abbreviates: Human Factor D 80 nM, substrate Z-L-Lys-SBzl, read-out: IC50.
The mark [3] stands for this setting: Human Factor D assay of Example 8, Table 2, read-out: IC50.
The mark [4] stands for this setting: Human Factor D, Table 3, read-out: IC50.

For `Cc1ncc(-c2ccc3c(c2)c(C(C)F)nn3CC(=O)N2C[C@H](F)C[C@H]2C(=O)Nc2cccc(Br)n2)cn1` (stereo partly drawn) [Compound 456, (2S,4R)—N-(6-Bromopyridin-2-yl)-4-fluoro-1-(2-(3-(1-fluoroethyl)-5-(2-methylpyrimidin-5-yl)-1H-indazol-1-yl)acetyl)pyrrolidine-2-carboxamide], the pIC50 under setting [1] is greater than 6.00.

As for `COc1ncc(-c2ccc3c(c2)c(C(C)=O)cn3CC(=O)N2C[C@H](F)C[C@H]2C(=O)NCc2cccc(Cl)c2F)cn1` [Compound 136, (2S,4R)-1-(2-(3-acetyl-5-(2-methoxypyrimidin-5-yl)-1H-indol-1-yl)acetyl)-N-(3-chloro-2-fluorobenzyl)-4-fluoropyrrolidine-2-carboxamide], the pIC50 under setting [2] was greater than 6.00.

With `CC(=O)c1nn(CC(=O)N2C[C@H](F)C[C@H]2C(=O)Nc2cccc(Br)n2)c2ccc(-c3cnc(CNC(=O)OC(C)(C)C)nc3)cc12` [Compound 403, tert-butyl ((5-(3-Acetyl-1-(2-((2S,4R)-2-((6-bromopyridin-2-yl)carbamoyl)-4-fluoropyrrolidin-1-yl)-2-oxoethyl)-1H-indazol-5-yl)pyrimidin-2-yl)methyl)carbamate], the pIC50 under setting [1] is greater than 6.00.

`CC(=O)c1nn(CC(=O)N2[C@@H]3C[C@@H]3C[C@H]2C(=O)Nc2cccc(Br)n2)c2ccc(-c3cnc4cc(C)nn4c3)cc12` [Compound 257, (1R,3S,5R)-2-(2-(3-acetyl-5-(2-methylpyrazolo[1,5-a]pyrimidin-6-yl)-1H-indazol-1-yl)acetyl)-N-(6-bromopyridin-2-yl)-2-azabicyclo[3.1.0] hexane-3-carboxamide]: under setting [3], the negative-log IC50 (pIC50) was greater than 6.00.

On to `CC(=O)c1cn(CC(=O)N2C[C@H](F)C[C@H]2C(=O)NCc2cccc(Cl)c2)c2ccc(-c3ccnnc3)cc12` [Compound 44, (2S,4R)-1-(2-(3-acetyl-5-(pyridazin-4-yl)-1H-indol-1-yl)acetyl)-N-(3-chlorobenzyl)-4-fluoropyrrolidine-2-carboxamide], for which the pIC50 under setting [2] is greater than 6.00.

As to `CC(=O)c1nn(CC(=O)N2C[C@H](F)C[C@H]2C(=O)Nc2cccc(Br)n2)c2ccc(-c3cnc(O)nc3)cc12` [Compound 604, (2S,4R)-1-(2-(3-Acetyl-5-(2-hydroxypyrimidin-5-yl)-1H-indazol-1-yl)acetyl)-N-(6-bromopyridin-2-yl)-4-fluoropyrrolidine-2-carboxamide], the pIC50 under setting [4] is greater than 6.00.

As for `CC(=O)c1nn(CC(=O)N2C[C@H](F)C[C@H]2C(=O)Nc2cncc(Br)n2)c2ccc(-c3cnc(CO)nc3)cc12` [Compound 398, (2S,4R)-1-(2-(3-Acetyl-5-(2-(hydroxymethyl)pyrimidin-5-yl)-1H-indazol-1-yl)acetyl)-N-(6-bromopyrazin-2-yl)-4-fluoropyrrolidine-2-carboxamide], under setting [1], the negative-log IC50 (pIC50) is greater than 6.00.

Turning to `COc1ncc(-c2ccc3c(c2)c(C(C)=O)nn3CC(=O)N2[C@H](C(=O)Nc3nc(Br)ccc3C)C[C@@]3(C)C[C@@H]23)cn1` [Compound 632, (1R,3S,5R)-2-(2-(3-Acetyl-5-(2-methoxypyrimidin-5-yl)-1H-indazol-1-yl)acetyl)-N-(6-bromo-3-methylpyridin-2-yl)-5-methyl-2-azabicyclo[3.1.0]hexane-3-carboxamide], the pIC50 under setting [4] is greater than 6.00.

`CC(=O)c1nn(CC(=O)N2[C@@H]3C[C@@H]3C[C@H]2C(=O)Nc2cnc(C)c(Br)n2)c2ccc(-c3cnc4cc(C)nn4c3)cc12` [Compound 666, (1R,3S,5R)-2-(2-(3-Acetyl-5-(2-methylpyrazolo[1,5-a]pyrimidin-6-yl)-1H-indazol-1-yl)acetyl)-N-(6-bromo-5-methylpyrazin-2-yl)-2-azabicyclo[3.1.0]hexane-3-carboxamide]: the pIC50 under setting [4] was greater than 6.00.

For the compound `CC(=O)c1nn(CC(=O)N2CC[C@@H](N)[C@H]2C(=O)Nc2cccc(Br)n2)c2ccc(-c3cnc(C)nc3)cc12` [Compound 270, (2S,3R)-1-(2-(3-Acetyl-5-(2-methylpyrimidin-5-yl)-1H-indazol-1-yl)acetyl)-3-amino-N-(6-bromopyridin-2-yl)pyrrolidine-2-carboxamide], under setting [3], the pIC50 was greater than 6.00.

As to `CC(=O)N[C@@H]1CN(C(=O)Cn2nc(C(C)=O)c3cc(-c4cnc(C)nc4)ccc32)[C@H](C(=O)Nc2cccc(Br)n2)[C@H]1F` [Compound 513, (2R,3S,4R)-4-Acetamido-1-(2-(3-acetyl-5-(2-methylpyrimidin-5-yl)-1H-indazol-1-yl)acetyl)-N-(6-bromopyridin-2-yl)-3-fluoropyrrolidine-2-carboxamide], the negative logarithm of the IC50 (pIC50) under setting [1] is greater than 6.00.

Take `CC(=O)c1cn(CC(=O)N2C[C@H](F)C[C@H]2C(=O)Nc2ccc(CN)cc2)c2ccc(-c3ccnnc3)cc12` [Compound 85, (2S,4R)-1-(2-(3-acetyl-5-(pyridazin-4-yl)-1H-indol-1-yl)acetyl)-N-(4-(aminomethyl)phenyl)-4-fluoropyrrolidine-2-carboxamide]: the pIC50 under setting [2] is less than 5.00.

In the case of `CC(=O)c1nn(CC(=O)N2[C@@H]3C[C@@H]3C[C@H]2C(=O)Nc2cncc(Br)n2)c2ccc(-c3cnc(NC4CC4)nc3)cc12` [Compound 380, (1R,3S,5R)-2-(2-(3-Acetyl-5-(2-(cyclopropylamino)pyrimidin-5-yl)-1H-indazol-1-yl)acetyl)-N-(6-bromopyrazin-2-yl)-2-azabicyclo[3.1.0]hexane-3-carboxamide], the pIC50 under setting [1] is greater than 6.00.

Take `CC(=O)c1nn(CC(=O)N2C[C@H](F)C[C@H]2C(=O)Nc2ccnc(OCC(F)(F)F)n2)c2ccc(-c3cnc(C)nc3)cc12` [Compound 377, (2S,4R)-1-(2-(3-Acetyl-5-(2-methylpyrimidin-5-yl)-1H-indazol-1-yl)acetyl)-4-fluoro-N-(2-(2,2,2-trifluoroethoxy)pyrimidin-4-yl)pyrrolidine-2-carboxamide]: under setting [1], the pIC50 is greater than 6.00.

For `CC(=O)c1nn(CC(=O)N2C[C@@](F)(CF)C[C@H]2C(=O)Nc2cccc(Br)n2)c2ccc(-c3cnc(C)nc3)cc12` [Compound 415, (2S,4R)-1-(2-(3-Acetyl-5-(2-methylpyrimidin-5-yl)-1H-indazol-1-yl)acetyl)-N-(6-bromopyridin-2-yl)-4-fluoro-4-(fluoromethyl)pyrrolidine-2-carboxamide], the pIC50 under setting [1] was greater than 6.00.

In the case of `Cc1cccc(NC(=O)[C@@H]2[C@H]3CC[C@H](C3)N2C(=O)Cn2cc(C(N)=O)c3cc(-c4ccc5cccnc5c4)ccc32)n1` [Compound 499, 1-(2-((1R,3S,4S)-3-(6-Methylpyridin-2-ylcarbamoyl)-2-azabicyclo[2.2.1]heptan-2-yl)-2-oxoethyl)-5-(quinolin-7-yl)-1H-indole-3-carboxamide], the pIC50 is 5.00 to 6.00.

Turning to `Cc1ncc(-c2ccc3c(c2)c(C(C)O)nn3CC(=O)N2C[C@H](F)C[C@H]2C(=O)Nc2cccc(Br)n2)cn1` (stereo partly drawn) [Compound 361, (2S,4R)-N-(6-bromopyridin-2-yl)-4-fluoro-1-(2-(3-(1-hydroxyethyl)-5-(2-methylpyrimidin-5-yl)-1H-indazol-1-yl)acetyl)pyrrolidine-2-carboxamide], under “read-out: IC50 (Stars)”, the pIC50 is 5.00 to 6.00.

Take `COc1ncc(-c2ccc3c(c2)c(C(C)=O)cn3CC(=O)N2[C@@H]3C[C@@H]3C[C@H]2C(=O)Nc2cccc(-c3ccccc3Cl)c2F)cn1` [Compound 80, (1R,3S,5R)-2-(2-(3-acetyl-5-(2-methoxypyrimidin-5-yl)-1H-indol-1-yl)acetyl)-N-(2′-chloro-2-fluorobiphenyl-3-yl)-2-azabicyclo[3.1.0] hexane-3-carboxamide]: under setting [2], the pIC50 is greater than 6.00.

On to `CC(=O)c1cn(CC(=O)N2C[C@H](F)C[C@H]2C(=O)NCCCCc2ccccc2)c2ccc(-c3cnc(C)nc3)cc12` [Compound 461, (2S,4R)-1-(2-(3-Acetyl-5-(2-methylpyrimidin-5-yl)-1H-indol-1-yl)acetyl)-4-fluoro-N-(4-phenylbutyl)pyrrolidine-2-carboxamide], for which, under setting [1], the pIC50 was greater than 6.00.

`CC(=O)c1nn(CC(=O)N2[C@@H]3C[C@@H]3C[C@H]2C(=O)Nc2cncc(Br)n2)c2ccc(-c3cnc(C4CC4)nc3)cc12` [Compound 356, (1R,3S,5R)-2-(2-(3-acetyl-5-(2-cyclopropylpyrimidin-5-yl)-1H-indazol-1-yl)acetyl)-N-(6-bromopyrazin-2-yl)-2-azabicyclo[3.1.0] hexane-3-carboxamide]: under setting [1], the pIC50 was greater than 6.00.

As to `Cc1cccc(NC(=O)[C@@H]2[C@H]3CC[C@H](C3)N2C(=O)Cn2cc(C(N)=O)c3cc(-c4ccc(N)nc4)ccc32)n1` [Compound 498, 5-(6-Aminopyridin-3-yl)-1-(2-((1R,3S,4S)-3-(6-methylpyridin-2-ylcarbamoyl)-2-azabicyclo[2.2.1]heptan-2-yl)-2-oxoethyl)-1H-indole-3-carboxamide], the pIC50 under setting [1] was less than 5.00.

As for `CC(=O)c1cn(CC(=O)N2C[C@H](F)C[C@H]2C(=O)NCCc2ccccc2)c2ccc(-c3cnc(C)nc3)cc12` [Compound 443, (2S,4R)-1-(2-(3-Acetyl-5-(2-methylpyrimidin-5-yl)-1H-indol-1-yl)acetyl)-4-fluoro-N-phenethylpyrrolidine-2-carboxamide], the pIC50 under setting [1] is greater than 6.00.

With `CC(=O)c1nn(CC(=O)N2C[C@@H](O)C[C@H]2C(=O)Nc2cccc(Br)n2)c2ccc(-c3cnc(C)nc3)cc12` [Compound 249, (2S,4S)-1-(2-(3-Acetyl-5-(2-methylpyrimidin-5-yl)-1H-indazol-1-yl)acetyl)-N-(6-bromopyridin-2-yl)-4-hydroxypyrrolidine-2-carboxamide], the pIC50 under setting [3] was greater than 6.00.

On to `CC(=O)c1nn(CC(=O)N2C[C@H](F)C[C@H]2C(=O)Nc2cccc(Br)n2)c2ccc(-c3cnn4c3CCC4)cc12` [Compound 693, (2S,4R)-1-(2-(3-Acetyl-5-(5,6-dihydro-4H-pyrrolo[1,2-b]pyrazol-3-yl)-1H-indazol-1-yl)acetyl)-N-(6-bromopyridin-2-yl)-4-fluoropyrrolidine-2-carboxamide], for which the pIC50 under setting [4] was greater than 6.00.

The term pIC50 denotes the IC50 on a negative log10 scale, so that one unit is a factor of ten.
